From patent publication US20140079741A1, “INHIBITION AND TREATMENT OF BIOFILMS” (priority 2011, published 2014)
Entries after “also recorded” stand apart in the source; their conditions may differ.

Assays:
[1] = tested on: C. albicans biofilm cells; assay: Intracellular accumulation of miconazole in biofilm cells (quantitative HPLC); type: cell-based, Candida albicans
Method: Quantitative analysis of intracellular accumulation of miconazole in C. albicans biofilm cells. […] After incubation, treated biofilms were resuspended and pooled per 5 wells. After centrifugation, samples were taken for cell counting using a Thoma counting chamber, whereafter the pellet was resuspended in 300 μl 70% acetonitrile/30% PBS. Miconazole concentration in the cell lysates was determined using HPLC and normalized to the number of cells in the pellet. Statistical analysis was performed using unpaired student t test; differences were considered significant if p<0.05.
The intracellular accumulation of miconazole in Δefg1 and WT biofilms upon miconazole treatment was determined to investigate whether the increased miconazole sensitivity of Δefg1 biofilms is due to an increased uptake or decreased efflux of miconazole. To this end, 16 h-old Δefg1 and WT C. albicans biofilms were treated with different concentrations of miconazole for 4 h and the concentration of miconazole in the biofilm cells via HPLC analysis was determined.
The intracellular accumulation of miconazole in WT biofilms grown in the prescence or absence of 500 μg/ml diclofenac upon miconazole treatment was determined to investigate whether the increased miconazole sensitivity of diclofenac-treated WT biofilms is due to an increased uptake or decreased efflux of miconazole. […]

[2] = tested on: C. albicans WT CAF2-1 biofilms; assay: Biofilm cell viability by CellTiter-Blue staining; type: cell-based, Candida albicans; conditions: 24 h
Method: To this end, cultures of the WT CAF2-1 were grown overnight (2*10^8 cells/ml) in YPD (1% yeast extract, 2% peptone, 2% glucose) and washed 3 times in PBS (pH 7.4). After dilution (OD600=0.5) in SC (1% CSM, complete amino acid supplement mixture, 1% YNB, yeast nitrogen base; 2% glucose), the cultures were resuspended (100 μl/well) in a 96well microtiter plate. After 1 h of adhesion, the adherent WT cells were incubated with or without 2 mM (about 500 μg/ml) diclofenac (in DMSO, resulting in final concentration of 2.4% DMSO) and allowed biofilm growth for 16 h in SC. Next, the resulting biofilms were washed with PBS and treated with various concentrations of miconazole (0-500 μM) for 24 h in the absence or presence of diclofenac. After washing, the remaining living cells using the CellTiter-Blue quantification method were determined.
(§1) Using the same setup as above, WT biofilms grown in the presence or absence of diclofenac (0.5-3 mM or 148-888 μg/mL) were incubated with various concentrations of Caspofungin (0-150 μM) for 24 h, both in the presence or absence of diclofenac. After washing, the remaining living cells within the biofilm was determined by CellTiter-Blue quantification. The MIC50 of caspofungin, diclofenac and the combination of both drugs against pretreated or mature C. albicans biofilms was quantified by XTT reduction assay (Ramage et al.).

[3] = tested on: C. albicans Δefg1 biofilms; assay: Biofilm activity assay, crystal violet quantification (BEC50); type: cell-based, Candida albicans
Method: (§2) Biofilm activity assay. The activity of miconazole and fluconazole against 16 h-old C. albicans biofilms (10^7 cells/well) was assessed using the crystal violet quantification method. The biofilm-eradicating capacity of a compound was determined as the minimal concentration resulting in 50% eradication of the biofilm (BEC50).
(§3) Miconazole sensitivity was analyzed of biofilms of C. albicans homozygous null mutants affected in genes involved in the cyclic AMP signaling pathway, namely Δcdc35, Δras1, Δpde1, Δpde2 and Δefg1. To this end, the inventors incubated 16 h-old C. albicans biofilms with various concentrations of miconazole for 24 h and determined the remaining biomass using the crystal violet quantification method.

[4] = tested on: C. albicans reintegrant Δefg1(EFG1) biofilms; assay: as above; type: cell-based, Candida albicans; conditions: for sensitivity of biofilms to miconazole: Δefg1(EFG1)
Method: as §2, §3

[5] = tested on: C. albicans biofilms of wild type CAF2; assay: as above; type: cell-based, Candida albicans
Method: as §2, §3
To this end, cultures of the WT CAF2-1 were grown overnight (2×10^8 cells/ml) in YPD (1% yeast extract, 2% peptone, 2% glucose) and washed 3 times in PBS (pH 7.4). After dilution (OD600=0.5) in SC (1% CSM, complete amino acid supplement mixture, 1% YNB, yeast nitrogen base; 2% glucose), the cultures were resuspended (100 μl/well) in a 96well microtiter plate. After 1 h of adhesion, the adherent WT cells were incubated with or without 500 μg/ml diclofenac and allowed biofilm formation for 16 h. Next, the resulting biofilms were washed with PBS and treated with various concentrations of miconazole for 24 h in the absence or presence of diclofenac. After washing, the remaining biomass was determined using the crystal violet quantification method.
The biofilm-eradicating capacity of a compound was determined as the minimal concentration resulting in 50% eradication of the biofilm (BEC50).

[6] = tested on: C. albicans WT biofilms; assay: Biofilm survival by CFU determination (plating on YPD); type: cell-based, Candida albicans; conditions: WT biofilms grown with 500 μg/ml diclofenac, AmB 2.5-10 μg/ml, 24 h
Method: Using the same setup as in Example 2, WT biofilms grown in the presence or absence of diclofenac (500 μg/ml) or Δefg1 biofilms were incubated with various concentrations of Amphotericin B (AmB) (2.5-10 μg/ml) for 24 h, both in the presence or absence of diclofenac. After washing, the remaining living cells within the biofilm were determined by plating on YPD and determination of colony forming units (CFUs).

[7] = tested on: biofilms of C. albicans CAF2-1; assay: MIC50 against biofilms (XTT reduction assay); type: cell-based, Candida albicans; conditions: for MIC50: Candida albicans
Method: as §1
(§4) Similar results were obtained by determination of the MIC50 values. The susceptibility testing and determination of minimal inhibitory concentrations (MIC) of diclofenac and caspofungin, and combinations thereof that inhibit fungal growth by 50% (MIC50) were performed according the NCCLS M27-A3 protocol (2008).

[8] = tested on: planktonic cultures of C. albicans CAF2-1; assay: MIC50 against planktonic cultures (NCCLS M27-A3); type: cell-based, Candida albicans; conditions: Candida albicans, planktonic
Method: as §4

[9] = tested on: C. albicans biofilms grown on catheters; assay: In vitro biofilm drug susceptibility on polyurethane catheter pieces (CFU); type: cell-based, Candida albicans
Method: In an alternative setup, in vitro biofilm drug susceptibility assays were performed using serum-coated 1 cm polyurethane catheter pieces (Arrow International Reading) as described previously. Biofilms were grown in RPMI 1640 (pH 7.0) and Candida cells were allowed to adhere to the substrate for 90 min.
Diclofenac (2 mM) was administered during the period of adhesion of C. albicans cells on the catheters and throughout the period of biofilm formation. Catheter fragments containing diclofenac-pretreated or untreated mature biofilms were washed and subsequently incubated with caspofungin (125 μM) or water in the presence or absence of diclofenac (2 mM) for 24 h, respectively. Biofilms were washed and quantified by determination of colony forming units. Untreated biofilms were considered as controls. Statistical analysis was performed using unpaired t-test; differences were considered significant if p<0.05. Data are the mean and SEM of five independent experiments using at least two catheters per test group.
Similar results were obtained when assessing the antibiofilm effect of caspofungin against mature biofilms, which were formed on diclofenac-soaked catheter fragments versus those formed on unsoaked catheter fragments.

[10] = tested on: C. albicans biofilm cells; conditions: caspofungin doses 0.05 μM-0.5 μM, background statement; cited from earlier work
[11] = tested on: C. albicans CAF2 biofilms on implanted catheter fragments; assay: Rat subcutaneous catheter infection model (in vivo biofilm susceptibility); parameters: species or system Candida albicans
Method: A rat subcutaneous catheter infection model was used for in vivo biofilm susceptibility studies, in which 6 rats were treated with sterile saline (control, 40 catheters), 6 rats with diclofenac (48 catheters), 5 rats with caspofungin (40 catheters) and 6 rats with a combination of diclofenac and caspofungin (45 catheters).
Diclofenac and caspofungin solutions for intravenous injection were prepared in sterile physiological solution. The administration of diclofenac (3 mg/kg) started immediately after the catheter implant and continued daily up to 9 days. The treatment with caspofungin (3 mg/kg) was initiated after 48 h of in vivo biofilm development and maintained by daily injections for 7 days. Sterile saline was administered to the control group. Further analysis and quantification of the number of cells per individual biofilm was performed as previously described. Statistical analysis was performed using unpaired t-test; differences were considered significant if p<0.05. Data are the means and SEM of 2 independent experiments. Six independent catheters retrieved from each test group were used for scanning electron microscopy (SEM) analyses. Prior to the SEM analysis, each catheter fragment was cut longitudinally through the lumen and subsequently prepared for microscopy as previously described.

[12] = rats, caspofungin 3 mg/kg 7 days with 48 h diclofenac-pretreatment and further diclofenac 3 mg/kg

With `Clc1ccc(COC(Cn2ccnc2)c2ccc(Cl)cc2Cl)c(Cl)c1` (stereo not shown) [miconazole] the “intracellular miconazole levels in diclofenac-treated compared to untreated WT biofilm cells” value ([1]; 62-250 μg/ml miconazole and 500 μg/ml diclofenac) was “significantly increased”, the “intracellular miconazole levels in Δefg1 biofilm cells compared to WT biofilm cells” value ([1]; 62-250 μg/ml miconazole, 4 h) was “significantly increased” and the “sensitivity to miconazole compared to untreated WT biofilms” value ([2]; biofilms treated with 2 mM diclofenac, miconazole 0-500 μM) was “increased sensitivity”. The BEC50 ([3]; Δefg1, 16 h-old biofilms, 24 h treatment) was 25 µg/mL, the “sensitivity of biofilms to miconazole” value ([3]; Δefg1, low miconazole dose 31 μg/ml) was “sensitive” and the BEC50 ([4]; reintegrant Δefg1(EFG1), 16 h-old biofilms, 24 h treatment) was 100 µg/mL. For the same compound, the “sensitivity of biofilms to miconazole” value ([4]; high miconazole dose 250 μg/ml) was “as sensitive to miconazole as Δefg1 biofilms”, the “sensitivity of biofilms to miconazole” value ([4]; moderate miconazole doses 62-125 μg/ml) was “intermediate miconazole sensitivity phenotype” and the “BEC50 (minimal concentration resulting in 50% eradication of the biofilm)” value ([5]; WT CAF2, 16 h-old biofilms, 24 h treatment, no diclofenac) was greater than 250 µg/mL. For the same compound, the BEC50 ([5]; WT biofilms grown and treated in presence of 500 μg/ml diclofenac) was 46 µg/mL and the “sensitivity of biofilms to miconazole” value ([5]; WT, high miconazole dose 250 μg/ml) was “resistant”.

For `C[C@@H]1[C@H](O)[C@@H](C)/C=C/C=C/C=C/C=C/C=C/C=C/C=C/[C@H](O[C@@H]2O[C@H](C)[C@@H](O)[C@H](N)[C@@H]2O)C[C@@H]2O[C@](O)(C[C@@H](O)C[C@@H](O)[C@H](O)CC[C@@H](O)C[C@@H](O)CC(=O)O[C@H]1C)C[C@H](O)[C@H]2C(=O)O` [Amphotericin B], the “drop of % survival compared to diclofenac-untreated biofilms” value [6] was “about 5 fold”.

`CC[C@H](C)C[C@H](C)CCCCCCCCC(=O)N[C@H]1C[C@@H](O)[C@@H](NCCN)NC(=O)[C@@H]2[C@@H](O)CCN2C(=O)[C@H]([C@H](O)CCN)NC(=O)[C@H]([C@H](O)[C@@H](O)c2ccc(O)cc2)NC(=O)[C@@H]2C[C@@H](O)CN2C(=O)[C@H]([C@@H](C)O)NC1=O` [caspofungin] gave an MIC50 ([7]; biofilms, caspofungin alone) of 6 µM, an MIC50 ([7]; biofilms, caspofungin in combination with 2 mM diclofenac-pretreatment) of less than 0.75 µM and an MIC50 ([7]; coincubation of mature biofilms with caspofungin and 2 mM diclofenac) of 1.5 µM. The “MIC50 against biofilms relative to MIC50 against planktonic cultures” value ([7]; caspofungin alone) was “at least 100 times”, the FICI ([7]; diclofenac coincubation/caspofungin combination) was 0.25 and the FICI ([7]; diclofenac pretreatment/caspofungin combination) was 0.125. The MIC50 ([8]; RPMI 1640, caspofungin alone) was less than 0.05 µM, the MIC50 ([8]; combination of caspofungin and 2 mM diclofenac) was 0.23 µM and the “reduction of the number of biofilm cells compared to control treatment” value ([9]; 125 μM caspofungin alone, 24 h, untreated/unsoaked catheters) was “did not result in a statistically significant reduction; also recorded: did not display significant activity”. For the same compound, the “reduction of the number of in vitro biofilm cells compared to untreated biofilms” value ([9]; 2 mM diclofenac during biofilm growth, then 125 μM caspofungin 24 h) was “at least 12 fold”, the “reduction of the number of biofilm cells compared to control treatment” value ([9]; biofilms grown on diclofenac-soaked catheters, 125 μM caspofungin) was “at least 17 fold” and the “metabolic activity of C. albicans biofilm cells” value [10] was “do not decrease the metabolic activity”. The “sterile catheter fragments retrieved” value ([11]; rats treated with both caspofungin and diclofenac) was 29%, the “number of sterile catheters retrieved” value ([11]; rats treated with both caspofungin and diclofenac (45 catheters)) was “thirteen” and the “sterile catheter fragments retrieved” value ([11]; rats treated with caspofungin alone) was 7.5%. For the same compound, the “number of sterile catheters retrieved” value ([11]; rats treated with caspofungin alone (40 catheters)) was “three”, the “reduction in biofilm cell numbers compared to control treatment” value [11, 12] was “more than 15 fold” and the “reduction in cell numbers compared to caspofungin treatment alone” value [11, 12] was “more than 5 fold”. For the same compound, the “reduction in the number of surviving biofilm cells compared to control treatment” value ([11]; rats, caspofungin alone 3 mg/kg daily injections for 7 days) was “more than 10 fold”, the “biofilm structure by scanning electron microscopy” value ([11]; rats, caspofungin without diclofenac-pretreatment) was “biofilm cells formed in minor clusters” and the “biofilm structure by scanning electron microscopy” value ([11]; rats, diclofenac and caspofungin together) was “only scattered yeast cells and hyphae were observed”. For the same compound, the “drop of % survival compared to diclofenac-untreated biofilms” value ([2]; WT biofilms grown with 0.5-3 mM diclofenac, various caspofungin concentrations) was “about 5 fold”.
